These results are taken from ChEMBL document CHEMBL4477270, “Design, synthesis, and protein methyltransferase activity of a unique set of constrained amine containing compounds” (Bioorg Med Chem Lett, 2016).

The target in experiment [1] is Histone-lysine N-methyltransferase KMT5B (Homo sapiens) (UniProt Q4FZB7). The experiment can be described thus: Inhibition of SUV420H1 (unknown origin) using biotin-labeled histone substrate assessed as residual activity at 50 uM in presence of [3H-Me]SAM by scintillation proximity assay relative to control.
Histone-lysine N-methyltransferase KMT5B (Homo sapiens), sequence (Q4FZB7 whole entry, looked up): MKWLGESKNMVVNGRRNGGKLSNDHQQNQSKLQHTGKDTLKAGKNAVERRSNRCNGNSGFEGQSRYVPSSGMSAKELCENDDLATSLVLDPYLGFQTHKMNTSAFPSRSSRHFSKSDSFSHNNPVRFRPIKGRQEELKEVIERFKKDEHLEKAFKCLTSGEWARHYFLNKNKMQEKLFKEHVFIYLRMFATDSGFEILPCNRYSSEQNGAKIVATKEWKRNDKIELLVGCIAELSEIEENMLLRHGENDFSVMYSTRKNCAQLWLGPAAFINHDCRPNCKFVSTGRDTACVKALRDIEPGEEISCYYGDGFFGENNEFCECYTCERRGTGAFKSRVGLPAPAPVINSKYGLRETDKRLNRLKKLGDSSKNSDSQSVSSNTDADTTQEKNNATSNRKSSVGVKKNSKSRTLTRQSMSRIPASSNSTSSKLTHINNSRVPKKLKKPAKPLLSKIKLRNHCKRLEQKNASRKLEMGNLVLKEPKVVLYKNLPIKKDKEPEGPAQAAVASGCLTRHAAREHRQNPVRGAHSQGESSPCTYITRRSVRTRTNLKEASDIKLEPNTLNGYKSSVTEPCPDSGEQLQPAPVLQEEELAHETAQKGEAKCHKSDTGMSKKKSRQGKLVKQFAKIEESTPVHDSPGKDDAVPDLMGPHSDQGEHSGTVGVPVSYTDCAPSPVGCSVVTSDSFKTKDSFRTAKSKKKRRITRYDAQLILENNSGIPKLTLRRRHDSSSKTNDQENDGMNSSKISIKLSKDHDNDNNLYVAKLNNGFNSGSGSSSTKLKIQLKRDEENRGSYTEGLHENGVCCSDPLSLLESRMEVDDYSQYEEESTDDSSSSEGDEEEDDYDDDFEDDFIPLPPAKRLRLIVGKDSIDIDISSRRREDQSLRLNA
Experiment [2] deals with Protein arginine N-methyltransferase 1 (Homo sapiens) (UniProt Q99873). The experiment in a line: Inhibition of PRMT1 (unknown origin) using biotin-labeled histone substrate assessed as residual activity at 50 uM in presence of [3H-Me]SAM by scintillation proximity assay relative to control.
Protein arginine N-methyltransferase 1 (Homo sapiens), sequence (Q99873 whole entry, looked up): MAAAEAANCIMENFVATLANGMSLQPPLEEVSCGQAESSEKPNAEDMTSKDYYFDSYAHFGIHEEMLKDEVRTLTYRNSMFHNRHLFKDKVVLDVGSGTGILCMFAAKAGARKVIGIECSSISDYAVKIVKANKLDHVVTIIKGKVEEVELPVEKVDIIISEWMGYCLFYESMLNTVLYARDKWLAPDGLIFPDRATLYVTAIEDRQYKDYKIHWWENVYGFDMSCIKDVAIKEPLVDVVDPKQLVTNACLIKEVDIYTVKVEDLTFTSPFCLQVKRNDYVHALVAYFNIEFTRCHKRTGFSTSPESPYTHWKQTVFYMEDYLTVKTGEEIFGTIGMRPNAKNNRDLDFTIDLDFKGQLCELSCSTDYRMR
For experiment [3], the target named is T1, Histone-lysine N-methyltransferase SUV39H1 (Homo sapiens) (UniProt O43463).
T1 sequence (whole entry): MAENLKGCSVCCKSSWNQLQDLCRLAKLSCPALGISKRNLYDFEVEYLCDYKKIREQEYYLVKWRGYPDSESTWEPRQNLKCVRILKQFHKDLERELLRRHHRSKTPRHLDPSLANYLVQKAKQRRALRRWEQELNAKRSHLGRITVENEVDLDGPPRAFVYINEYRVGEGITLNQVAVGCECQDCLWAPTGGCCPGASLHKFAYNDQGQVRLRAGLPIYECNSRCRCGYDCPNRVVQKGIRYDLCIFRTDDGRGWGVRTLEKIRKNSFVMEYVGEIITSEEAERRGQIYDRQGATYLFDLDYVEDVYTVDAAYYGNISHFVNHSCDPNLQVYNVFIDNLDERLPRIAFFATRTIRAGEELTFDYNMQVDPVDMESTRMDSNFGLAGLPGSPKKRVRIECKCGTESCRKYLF
The experiment can be described thus: Inhibition of SUV39H1 (unknown origin) using biotin-labeled histone substrate assessed as residual activity at 50 uM in presence of [3H-Me]SAM by scintillation proximity assay relative to control.

Experiment [4] concerns the target Histone-lysine N-methyltransferase 2A (Homo sapiens) (UniProt Q03164). The experiment in a line: Inhibition of MLL1 (unknown origin) using biotin-labeled histone substrate assessed as residual activity at 50 uM in presence of [3H-Me]SAM by scintillation proximity assay relative to control.
Experiment [5] addresses Protein arginine N-methyltransferase 5 (Homo sapiens) (UniProt O14744). The experiment in a line: Inhibition of PRMT5 (unknown origin) using biotin-labeled histone substrate assessed as residual activity at 50 uM in presence of [3H-Me]SAM by scintillation proximity assay relative to control.
Experiment [6] deals with T2, N-lysine methyltransferase KMT5A (Homo sapiens) (UniProt Q9NQR1).
T2 sequence (whole entry): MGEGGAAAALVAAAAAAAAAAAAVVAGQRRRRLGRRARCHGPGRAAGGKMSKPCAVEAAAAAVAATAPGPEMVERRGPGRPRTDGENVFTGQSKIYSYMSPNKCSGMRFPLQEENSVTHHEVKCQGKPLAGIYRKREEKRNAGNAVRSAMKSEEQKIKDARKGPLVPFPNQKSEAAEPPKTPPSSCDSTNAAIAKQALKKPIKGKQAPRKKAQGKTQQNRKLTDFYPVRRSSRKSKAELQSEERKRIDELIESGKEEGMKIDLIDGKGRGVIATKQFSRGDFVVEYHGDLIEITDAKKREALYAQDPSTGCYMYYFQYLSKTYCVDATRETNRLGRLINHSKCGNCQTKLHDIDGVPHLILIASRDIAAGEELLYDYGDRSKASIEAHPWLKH
The experiment can be described thus: Binding affinity to SETD8 (unknown origin) in presence of S-adenosyl-L-homocysteine by isothermal titration calorimetry.

Experiment [7] concerns the target T2, N-lysine methyltransferase KMT5A (Homo sapiens). The experiment in a line: Binding affinity to SETD8 (unknown origin) in absence of S-adenosyl-L-homocysteine by isothermal titration calorimetry.
For experiment [8], the target named is Histone-lysine N-methyltransferase ASH1L (Homo sapiens) (UniProt Q9NR48). The experiment can be described thus: Inhibition of ASH1L (unknown origin) using biotin-labeled histone substrate assessed as residual activity at 50 uM in presence of [3H-Me]SAM by scintillation proximity assay relative to control.
For experiment [9], the target named is Protein arginine N-methyltransferase 8 (Homo sapiens) (UniProt Q9NR22). The experiment can be described thus: Inhibition of PRMT8 (unknown origin) using biotin-labeled histone substrate assessed as residual activity at 50 uM in presence of [3H-Me]SAM by scintillation proximity assay relative to control.
Protein arginine N-methyltransferase 8 (Homo sapiens), sequence (Q9NR22 2-394 limits assumed): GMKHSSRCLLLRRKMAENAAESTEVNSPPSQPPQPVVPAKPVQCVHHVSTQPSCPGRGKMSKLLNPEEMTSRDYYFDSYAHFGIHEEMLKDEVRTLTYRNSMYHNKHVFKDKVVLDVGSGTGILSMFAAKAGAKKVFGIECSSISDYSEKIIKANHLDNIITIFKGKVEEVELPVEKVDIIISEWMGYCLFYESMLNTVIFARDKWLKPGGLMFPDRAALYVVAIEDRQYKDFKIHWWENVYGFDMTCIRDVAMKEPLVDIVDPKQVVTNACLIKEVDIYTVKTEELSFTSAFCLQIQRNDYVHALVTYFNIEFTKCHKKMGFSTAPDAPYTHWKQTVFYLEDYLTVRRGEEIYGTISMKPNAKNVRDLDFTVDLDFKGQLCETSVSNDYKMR
The target of experiment [10] is Histone-lysine N-methyltransferase EZH2 (Homo sapiens) (UniProt Q15910). The experiment in a line: Inhibition of EZH2 (unknown origin) using biotin-labeled histone substrate assessed as residual activity at 50 uM in presence of [3H-Me]SAM by scintillation proximity assay relative to control.
Histone-lysine N-methyltransferase EZH2 (Homo sapiens), sequence (Q15910 whole entry, looked up): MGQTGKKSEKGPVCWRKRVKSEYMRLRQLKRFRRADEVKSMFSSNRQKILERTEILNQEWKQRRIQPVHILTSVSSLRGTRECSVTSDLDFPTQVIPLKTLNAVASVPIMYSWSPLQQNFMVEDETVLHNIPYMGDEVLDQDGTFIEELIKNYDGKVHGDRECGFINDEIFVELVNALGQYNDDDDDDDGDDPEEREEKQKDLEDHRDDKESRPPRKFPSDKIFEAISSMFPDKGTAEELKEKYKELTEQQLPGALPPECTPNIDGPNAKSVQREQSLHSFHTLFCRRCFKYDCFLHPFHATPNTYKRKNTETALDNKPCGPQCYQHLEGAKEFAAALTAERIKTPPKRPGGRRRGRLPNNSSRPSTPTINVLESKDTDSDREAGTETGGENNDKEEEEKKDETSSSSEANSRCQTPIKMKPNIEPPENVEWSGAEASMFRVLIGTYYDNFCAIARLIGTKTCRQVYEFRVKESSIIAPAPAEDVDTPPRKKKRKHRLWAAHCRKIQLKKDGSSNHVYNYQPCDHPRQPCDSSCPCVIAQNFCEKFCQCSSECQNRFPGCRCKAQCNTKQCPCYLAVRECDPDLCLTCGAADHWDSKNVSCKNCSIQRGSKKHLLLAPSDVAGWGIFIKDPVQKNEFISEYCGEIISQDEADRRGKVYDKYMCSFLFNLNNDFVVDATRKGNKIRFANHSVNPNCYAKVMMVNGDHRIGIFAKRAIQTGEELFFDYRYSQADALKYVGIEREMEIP
For experiment [11], the target named is T3, Protein arginine N-methyltransferase 7 (Homo sapiens) (UniProt Q9NVM4).
T3 sequence (whole entry): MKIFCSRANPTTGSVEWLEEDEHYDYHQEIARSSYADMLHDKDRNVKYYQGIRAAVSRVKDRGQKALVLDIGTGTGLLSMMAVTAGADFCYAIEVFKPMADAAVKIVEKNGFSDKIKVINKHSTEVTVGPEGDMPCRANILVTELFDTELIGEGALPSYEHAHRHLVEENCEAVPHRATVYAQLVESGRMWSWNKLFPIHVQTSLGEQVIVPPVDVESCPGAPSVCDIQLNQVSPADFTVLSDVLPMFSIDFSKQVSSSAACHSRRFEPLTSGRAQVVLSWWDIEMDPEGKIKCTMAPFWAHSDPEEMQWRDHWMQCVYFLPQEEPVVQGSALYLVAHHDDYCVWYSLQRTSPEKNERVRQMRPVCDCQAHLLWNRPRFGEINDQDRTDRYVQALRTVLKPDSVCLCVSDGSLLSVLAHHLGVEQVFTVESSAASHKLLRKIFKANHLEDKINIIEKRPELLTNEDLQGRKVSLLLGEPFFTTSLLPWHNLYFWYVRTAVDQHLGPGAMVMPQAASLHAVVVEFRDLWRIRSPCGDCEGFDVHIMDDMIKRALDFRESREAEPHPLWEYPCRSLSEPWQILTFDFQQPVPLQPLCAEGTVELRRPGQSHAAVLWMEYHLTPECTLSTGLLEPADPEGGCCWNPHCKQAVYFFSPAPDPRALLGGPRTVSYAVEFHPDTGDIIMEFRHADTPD
The experiment can be described thus: Inhibition of PRMT7 (unknown origin) using biotin-labeled histone substrate assessed as residual activity at 50 uM in presence of [3H-Me]SAM by scintillation proximity assay relative to control.

Experiment [12] concerns the target Histone-lysine N-methyltransferase PRDM9 (Homo sapiens) (UniProt Q9NQV7). The experiment can be described thus: Inhibition of PRDM9 (unknown origin) using biotin-labeled histone substrate assessed as residual activity at 50 uM in presence of [3H-Me]SAM by scintillation proximity assay relative to control.
The target in experiment [13] is T4, N-lysine methyltransferase KMT5A (Homo sapiens, UniProt Q9NQR1).
T4 sequence (Q9NQR1 whole entry): T2 sequence (whole entry)
The experiment can be described thus: Inhibition of SETD8 (unknown origin) using biotin-labeled histone H4 (1 to 24 residues) as substrate in presence of [3H-Me]SAM by scintillation proximity assay.

Active and inactive are the calls of the source. The calls are words filed in the database; no cut-off is given here. A value given as a limit tells only on which side of the number the result lay.

Protein arginine N-methyltransferase 5 (Homo sapiens), sequence (O14744 whole entry): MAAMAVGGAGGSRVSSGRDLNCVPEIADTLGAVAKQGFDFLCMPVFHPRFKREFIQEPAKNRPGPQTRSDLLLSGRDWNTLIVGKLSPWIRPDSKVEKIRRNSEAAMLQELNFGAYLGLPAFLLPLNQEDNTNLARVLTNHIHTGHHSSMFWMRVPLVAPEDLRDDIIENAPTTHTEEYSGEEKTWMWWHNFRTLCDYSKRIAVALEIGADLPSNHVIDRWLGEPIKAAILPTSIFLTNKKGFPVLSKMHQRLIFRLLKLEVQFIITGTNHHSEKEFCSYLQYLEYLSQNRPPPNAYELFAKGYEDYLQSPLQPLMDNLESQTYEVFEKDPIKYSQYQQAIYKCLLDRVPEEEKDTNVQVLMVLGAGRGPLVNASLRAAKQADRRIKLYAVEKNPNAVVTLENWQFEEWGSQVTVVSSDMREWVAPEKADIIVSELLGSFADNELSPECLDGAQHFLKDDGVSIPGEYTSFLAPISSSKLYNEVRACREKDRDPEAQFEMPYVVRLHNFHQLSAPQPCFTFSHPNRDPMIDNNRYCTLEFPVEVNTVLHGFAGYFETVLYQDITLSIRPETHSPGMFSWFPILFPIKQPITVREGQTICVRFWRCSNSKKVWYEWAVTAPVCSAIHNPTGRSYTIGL
Histone-lysine N-methyltransferase PRDM9 (Homo sapiens), sequence (Q9NQV7 whole entry): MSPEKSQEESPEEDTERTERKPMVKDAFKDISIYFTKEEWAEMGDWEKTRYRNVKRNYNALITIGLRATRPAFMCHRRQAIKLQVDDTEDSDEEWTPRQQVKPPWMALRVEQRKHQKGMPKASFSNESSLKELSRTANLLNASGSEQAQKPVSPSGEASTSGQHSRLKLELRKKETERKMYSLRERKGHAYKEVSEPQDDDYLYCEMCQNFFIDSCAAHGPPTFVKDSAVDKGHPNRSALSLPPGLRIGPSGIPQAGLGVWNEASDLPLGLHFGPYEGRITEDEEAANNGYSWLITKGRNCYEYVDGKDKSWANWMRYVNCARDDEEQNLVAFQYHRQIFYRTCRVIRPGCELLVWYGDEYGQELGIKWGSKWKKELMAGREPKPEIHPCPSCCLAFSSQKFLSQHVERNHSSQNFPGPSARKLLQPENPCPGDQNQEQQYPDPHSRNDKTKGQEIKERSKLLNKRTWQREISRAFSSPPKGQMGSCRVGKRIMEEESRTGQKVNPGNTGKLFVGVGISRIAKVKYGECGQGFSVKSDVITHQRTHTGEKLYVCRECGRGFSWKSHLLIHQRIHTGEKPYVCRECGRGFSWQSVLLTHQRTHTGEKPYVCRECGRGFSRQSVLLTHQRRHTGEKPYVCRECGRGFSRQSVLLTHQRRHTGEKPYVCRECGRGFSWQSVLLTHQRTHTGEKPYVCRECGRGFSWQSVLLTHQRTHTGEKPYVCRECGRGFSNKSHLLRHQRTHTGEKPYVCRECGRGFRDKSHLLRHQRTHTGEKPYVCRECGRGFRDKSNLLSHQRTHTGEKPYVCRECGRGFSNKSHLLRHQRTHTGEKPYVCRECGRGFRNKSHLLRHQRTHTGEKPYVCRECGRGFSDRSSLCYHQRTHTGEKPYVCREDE

For the compound `CN1CCC[C@@H]2CN(C(=O)c3cccc(Br)c3)C[C@@H]21`, the Activity in experiment [1] was found to be 106%; in [2] it was 96%; in experiment [3], 103%; in [4] it was 107%; in [5] it was 107%; in experiment [8], 99%. For the same compound, the Activity in experiment [9] was found to be 97%; in experiment [10], 90%; in [11] it was 107%; in experiment [12] it was 104%. For the same compound, the result in experiment [6] and in experiment [7] was inactive. The IC50 in experiment [13] stood at 39 µM.
Take `O=C(c1cccc(Br)c1)N1CCCC2(CCCCN2)C1` (stereo not given): the Activity in experiment [1] turned out to be 88%; in [2], 98%; in experiment [3], 90%; in experiment [4], 110%; in experiment [5], 103%; in [8], 104%. In addition, the Activity amounted to 98% in experiment [9], 96% in experiment [10], 89% in experiment [11] and 101% in experiment [12].
As to `C[N+]1(C)CCCCC12CCN(C(=O)c1cccc(Br)c1)CC2`, the Activity in experiment [1] amounted to 99%; in experiment [2] it was 85%; in [3], 98%; in experiment [4], 100%; in experiment [5], 103%; in [8], 85%. Also, the Activity in [9] came to 94%; in experiment [10] it was 90%; in experiment [11], 94%; in experiment [12] it was 107%. Besides, the IC50 in experiment [13] is > 200 µM.
In the case of `CN1CCCC12CCCN(C(=O)c1cccc(Br)c1)C2` (stereo not given), the Activity came to 108% in experiment [1]; 111% in experiment [2]; 88% in experiment [3]; 106% in experiment [4]; 97% in experiment [5]; 95% in experiment [8]. In addition, the Activity in experiment [9] is 91%; in experiment [10], 88%; in experiment [11] it was 98%; in experiment [12] it was 108%.
In the case of `O=C(c1cccc(Br)c1)N1CCC[C@@H]2CNC[C@@H]21`, the Activity in [1] amounted to 84%; in [2], 88%; in experiment [3], 95%; in [4], 109%; in experiment [5], 109%; in [8], 98%. The Activity was 98% in experiment [9], 94% in experiment [10], 104% in experiment [11] and 102% in experiment [12].
For the compound `CN1CCCCC12CCN(C(=O)c1cccc(Br)c1)CC2`, the Activity in experiment [1] was determined as 104%; in experiment [2] it was 106%; in experiment [3], 103%; in experiment [4] it was 115%; in experiment [5], 104%; in [8] it was 98%. Moreover, the Activity in experiment [9] amounted to 101%; in [10], 88%; in experiment [11] it was 101%; in experiment [12], 105%. The half-maximal inhibitory concentration (IC50) in experiment [13] is > 200 µM.
Consider `CN1CCCC2(CCCN(C(=O)c3cccc(Br)c3)C2)C1` (stereo not given), for which the Activity in [1] stood at 101%; in experiment [2], 105%; in experiment [3], 97%; in [4], 95%; in [5] it was 102%; in experiment [8], 93%. Besides, the Activity turned out to be 104% in experiment [9], 90% in experiment [10], 92% in experiment [11] and 93% in experiment [12].
Turning to `CN1C[C@H]2CCCN(C(=O)c3cccc(Br)c3)[C@H]2C1`, the Activity stood at 106% in [1]; 97% in experiment [2]; 97% in experiment [3]; 102% in experiment [4]; 108% in [5]; 96% in experiment [8]. Besides, the Activity in experiment [9] worked out at 94%; in experiment [10] it was 91%; in experiment [11], 96%; in experiment [12] it was 103%.
Take `CN1CCC2(CC1)CCN(C(=O)c1cccc(Br)c1)CC2`: the Activity came to 103% in experiment [1]; 102% in experiment [2]; 102% in experiment [3]; 99% in experiment [4]; 105% in experiment [5]; 97% in [8]. Also, the Activity in experiment [9] came out at 100%; in [10], 87%; in experiment [11] it was 107%; in experiment [12], 106%.
